In patent publication US7943584B2, “Medicinal composition containing diabetes remedy” (Sankyo Company, Limited, priority 2004, dated 2011):

Target: T1, human pancreatic α-amylase (HPA) (Homo sapiens, UniProt P04746)
T1 construct: purchased International Reagents Co., Ltd. Calibzyme AMY
T1 sequence (P04746 16-511): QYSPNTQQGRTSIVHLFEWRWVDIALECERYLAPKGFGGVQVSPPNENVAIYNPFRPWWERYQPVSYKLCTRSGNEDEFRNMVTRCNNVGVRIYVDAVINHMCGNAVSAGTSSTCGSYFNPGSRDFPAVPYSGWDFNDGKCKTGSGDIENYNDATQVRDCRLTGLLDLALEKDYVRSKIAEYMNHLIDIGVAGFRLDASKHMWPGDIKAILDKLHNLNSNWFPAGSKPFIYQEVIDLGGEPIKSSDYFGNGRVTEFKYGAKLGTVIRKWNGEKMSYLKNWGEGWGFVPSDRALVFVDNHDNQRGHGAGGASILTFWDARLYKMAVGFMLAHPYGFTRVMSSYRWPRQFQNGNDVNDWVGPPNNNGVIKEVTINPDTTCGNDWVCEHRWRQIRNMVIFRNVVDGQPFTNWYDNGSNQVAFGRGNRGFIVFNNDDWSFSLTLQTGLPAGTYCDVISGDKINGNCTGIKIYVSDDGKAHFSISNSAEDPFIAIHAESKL
Experiment: α-Amylase inhibitory action (Blue Starch, Neo Amylase Test)
Assay type: biochemical
Details: final concentration required for 50% inhibition of HPA solution, 37° C.

IC50: 848 nM
SMILES: COC[C@H]1O[C@@H](O[C@H]2[C@H](O)[C@@H](O)C(O[C@H]3[C@H](O)CN[C@@H]3CO)O[C@@H]2CO)[C@H](O)[C@@H](O)[C@@H]1O (stereo partly drawn) [Reference Example 8, (2R,3R,4R)-4-Hydroxy-2-hydroxymethylpyrrolidin-3-yl 4-O-(6-methoxy-6-deoxy-β-D-glucopyranosyl)-D-glucopyranoside]
